Tests used:
[1] = molecular target: Sodium channel protein type 4 subunit alpha (Homo sapiens, UniProt P35499); assay: Inhibition of human Nav1.4 expressed in HEK293 cells at holding potential of -125 mV […] by patchxpress-based electrophysiology assay; type: cell-based
[2] = molecular target: Sodium channel protein type 9 subunit alpha (Homo sapiens, UniProt Q15858); assay: Inhibition of human Nav1.7 expressed in HEK293 cells at holding potential of -125 mV […] by patchxpress-based electrophysiology assay; type: cell-based
Sodium channel protein type 9 subunit alpha, sequence (Q15858 whole entry): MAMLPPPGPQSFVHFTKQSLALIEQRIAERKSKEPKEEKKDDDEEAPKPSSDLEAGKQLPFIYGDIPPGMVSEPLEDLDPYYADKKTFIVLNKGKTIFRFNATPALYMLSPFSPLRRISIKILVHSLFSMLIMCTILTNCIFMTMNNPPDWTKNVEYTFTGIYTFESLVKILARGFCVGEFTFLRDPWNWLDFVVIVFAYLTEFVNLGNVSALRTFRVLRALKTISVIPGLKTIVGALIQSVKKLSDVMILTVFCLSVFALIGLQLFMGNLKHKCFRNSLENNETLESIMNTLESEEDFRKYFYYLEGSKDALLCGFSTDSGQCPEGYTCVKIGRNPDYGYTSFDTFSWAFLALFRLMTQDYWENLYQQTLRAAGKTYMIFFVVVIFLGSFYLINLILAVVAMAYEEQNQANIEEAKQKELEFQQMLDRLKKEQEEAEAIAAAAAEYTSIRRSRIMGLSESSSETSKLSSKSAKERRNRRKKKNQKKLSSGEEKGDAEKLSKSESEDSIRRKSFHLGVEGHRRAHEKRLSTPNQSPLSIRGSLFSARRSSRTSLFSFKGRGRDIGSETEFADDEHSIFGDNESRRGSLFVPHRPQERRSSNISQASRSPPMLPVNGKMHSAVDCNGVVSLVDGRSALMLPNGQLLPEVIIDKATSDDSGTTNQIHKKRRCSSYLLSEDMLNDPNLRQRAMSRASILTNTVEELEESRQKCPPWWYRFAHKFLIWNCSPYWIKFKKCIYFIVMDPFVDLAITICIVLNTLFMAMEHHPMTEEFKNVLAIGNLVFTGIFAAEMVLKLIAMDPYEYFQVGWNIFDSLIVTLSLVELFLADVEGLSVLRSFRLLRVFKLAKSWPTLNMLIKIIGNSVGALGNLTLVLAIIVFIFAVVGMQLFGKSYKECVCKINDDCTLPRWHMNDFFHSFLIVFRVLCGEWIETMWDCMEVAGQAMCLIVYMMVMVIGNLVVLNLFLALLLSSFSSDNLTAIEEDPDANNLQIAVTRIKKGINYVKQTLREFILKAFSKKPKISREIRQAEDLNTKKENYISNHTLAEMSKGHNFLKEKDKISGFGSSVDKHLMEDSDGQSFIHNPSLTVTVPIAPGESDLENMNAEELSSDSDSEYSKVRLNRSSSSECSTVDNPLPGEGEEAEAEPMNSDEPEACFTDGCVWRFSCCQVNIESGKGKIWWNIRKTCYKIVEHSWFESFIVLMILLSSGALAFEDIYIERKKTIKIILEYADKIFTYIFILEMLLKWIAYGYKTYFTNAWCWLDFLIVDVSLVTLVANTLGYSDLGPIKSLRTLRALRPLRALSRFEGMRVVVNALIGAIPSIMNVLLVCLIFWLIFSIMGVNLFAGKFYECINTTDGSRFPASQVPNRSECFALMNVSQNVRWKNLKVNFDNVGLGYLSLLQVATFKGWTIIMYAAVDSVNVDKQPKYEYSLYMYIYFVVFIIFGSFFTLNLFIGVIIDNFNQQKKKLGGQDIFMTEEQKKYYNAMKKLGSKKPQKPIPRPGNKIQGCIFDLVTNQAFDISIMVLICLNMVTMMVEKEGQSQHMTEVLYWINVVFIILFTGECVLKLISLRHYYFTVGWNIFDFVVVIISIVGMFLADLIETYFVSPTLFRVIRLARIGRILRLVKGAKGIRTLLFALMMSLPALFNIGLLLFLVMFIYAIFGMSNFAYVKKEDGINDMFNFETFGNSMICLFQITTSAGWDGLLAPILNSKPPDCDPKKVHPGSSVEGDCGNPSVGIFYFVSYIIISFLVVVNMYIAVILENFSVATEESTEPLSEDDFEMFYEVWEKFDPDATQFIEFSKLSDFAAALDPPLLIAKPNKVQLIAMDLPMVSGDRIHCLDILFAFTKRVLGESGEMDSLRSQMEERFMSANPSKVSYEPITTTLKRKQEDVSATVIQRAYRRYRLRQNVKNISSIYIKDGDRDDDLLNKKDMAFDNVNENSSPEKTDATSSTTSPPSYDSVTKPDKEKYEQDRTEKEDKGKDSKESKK

Sodium channel protein type 4 subunit alpha, sequence (P35499 whole entry): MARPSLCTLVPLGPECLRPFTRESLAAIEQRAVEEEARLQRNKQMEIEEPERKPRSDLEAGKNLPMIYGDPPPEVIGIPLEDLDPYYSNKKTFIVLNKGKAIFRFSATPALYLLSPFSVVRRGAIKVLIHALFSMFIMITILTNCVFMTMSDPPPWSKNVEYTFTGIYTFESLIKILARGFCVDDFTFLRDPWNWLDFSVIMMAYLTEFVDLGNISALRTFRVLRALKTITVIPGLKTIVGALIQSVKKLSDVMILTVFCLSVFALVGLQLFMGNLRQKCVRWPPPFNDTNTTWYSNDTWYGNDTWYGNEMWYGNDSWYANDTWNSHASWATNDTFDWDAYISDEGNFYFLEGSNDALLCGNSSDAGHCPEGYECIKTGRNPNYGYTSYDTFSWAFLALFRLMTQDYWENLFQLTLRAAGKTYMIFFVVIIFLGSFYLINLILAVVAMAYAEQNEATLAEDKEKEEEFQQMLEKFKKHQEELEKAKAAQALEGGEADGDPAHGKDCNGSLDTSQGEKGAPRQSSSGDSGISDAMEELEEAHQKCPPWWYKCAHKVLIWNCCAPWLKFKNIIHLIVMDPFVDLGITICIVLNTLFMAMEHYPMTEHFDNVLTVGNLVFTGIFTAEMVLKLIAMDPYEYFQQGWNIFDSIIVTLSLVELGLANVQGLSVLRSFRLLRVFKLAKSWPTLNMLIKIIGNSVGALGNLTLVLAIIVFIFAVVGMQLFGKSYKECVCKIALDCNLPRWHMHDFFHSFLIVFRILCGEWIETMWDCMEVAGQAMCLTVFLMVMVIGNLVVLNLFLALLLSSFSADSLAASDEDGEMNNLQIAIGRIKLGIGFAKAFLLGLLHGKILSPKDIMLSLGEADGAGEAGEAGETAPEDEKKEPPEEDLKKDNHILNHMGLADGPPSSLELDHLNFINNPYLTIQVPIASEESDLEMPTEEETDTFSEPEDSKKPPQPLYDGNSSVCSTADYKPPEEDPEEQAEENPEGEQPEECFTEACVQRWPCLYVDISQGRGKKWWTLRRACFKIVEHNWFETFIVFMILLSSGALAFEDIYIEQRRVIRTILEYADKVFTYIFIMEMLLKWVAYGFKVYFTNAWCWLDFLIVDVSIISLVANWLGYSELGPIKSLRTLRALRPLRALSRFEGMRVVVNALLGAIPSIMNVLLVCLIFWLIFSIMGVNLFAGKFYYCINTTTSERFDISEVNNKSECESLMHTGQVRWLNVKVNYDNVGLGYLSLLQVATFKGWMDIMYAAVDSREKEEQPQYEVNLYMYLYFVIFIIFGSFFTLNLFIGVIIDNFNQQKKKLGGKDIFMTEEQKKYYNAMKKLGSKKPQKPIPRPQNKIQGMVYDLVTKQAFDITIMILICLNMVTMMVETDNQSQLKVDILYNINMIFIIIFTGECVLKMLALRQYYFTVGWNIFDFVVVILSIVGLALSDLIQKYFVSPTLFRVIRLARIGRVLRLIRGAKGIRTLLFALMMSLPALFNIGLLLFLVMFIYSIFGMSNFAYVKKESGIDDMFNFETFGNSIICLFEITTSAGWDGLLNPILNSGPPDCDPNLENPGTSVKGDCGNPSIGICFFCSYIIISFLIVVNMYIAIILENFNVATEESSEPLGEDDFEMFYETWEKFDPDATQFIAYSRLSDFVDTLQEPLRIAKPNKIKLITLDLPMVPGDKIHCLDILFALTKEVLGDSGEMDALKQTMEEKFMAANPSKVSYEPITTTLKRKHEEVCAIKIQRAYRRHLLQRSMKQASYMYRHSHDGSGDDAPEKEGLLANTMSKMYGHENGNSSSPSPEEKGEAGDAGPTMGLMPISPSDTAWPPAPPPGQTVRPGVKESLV

SMILES | IC50 [1] | IC50 [2]
C#CC[C@H](NC(=O)[C@@H](N)CCC(=O)O)C(=O)N[C@H]1CSSC[C@@H]2NC(=O)[C@@H]3CSSC[C@@H](C(=O)N[C@@H](CCCNC(=N)N)C(=O)N[C@@H](CCCCN)C(=O)N[C@@H](CCC(=O)O)C(=O)N[C@H](C(N)=O)[C@@H](C)CC)NC(=O)[C@H](Cc4c[nH]c5ccc(Br)cc45)NC(=O)[C@H](CC(C)C)NC(=O)[C@H](CCCCN)NC(=O)[C@H](CSSC[C@H](NC(=O)[C@H]([C@@H](C)O)NC(=O)[C@H](Cc4c[nH]c5ccccc45)NC(=O)[C@H](CCCC)NC(=O)[C@H](Cc4c[nH]c5ccccc45)NC(=O)[C@H](CCCCN)NC(=O)[C@H](CCC(N)=O)NC1=O)C(=O)N[C@@H](CC(=O)O)C(=O)N[C@@H](CCC(=O)O)C(=O)N[C@@H](CCCCN)C(=O)N[C@@H](CCCNC(=N)N)C(=O)N[C@@H](C)C(=O)N3)NC(=O)[C@H](CCCNC(=N)N)NC(=O)[C@H](CC(C)C)NC(=O)CNC(=O)[C@H](CCC(=O)O)NC2=O | 89 nM | 2.5 nM
C#CC[C@H](N)C(=O)N[C@@H](Cc1ccc(O)cc1)C(=O)N[C@H]1CSSC[C@@H]2NC(=O)[C@@H]3CSSC[C@@H](C(=O)N[C@@H](CCCNC(=N)N)C(=O)N[C@@H](CCCCN)C(=O)N[C@@H](CCC(=O)O)C(=O)N[C@@H](CCc4ccccc4)C(N)=O)NC(=O)[C@H](Cc4c[nH]c5ccccc45)NC(=O)[C@H](CC(C)C)NC(=O)[C@H](CCCCN)NC(=O)[C@H](CSSC[C@H](NC(=O)[C@H]([C@@H](C)O)NC(=O)[C@H](Cc4c[nH]c5ccccc45)NC(=O)[C@H](CCCC)NC(=O)[C@H](Cc4c[nH]c5ccccc45)NC(=O)[C@H](CCCCN)NC(=O)[C@H](CCC(N)=O)NC1=O)C(=O)N[C@@H](CC(=O)O)C(=O)N[C@@H](CO)C(=O)N[C@@H](CCCCN)C(=O)N[C@@H](CCCNC(=N)N)C(=O)N[C@@H](C)C(=O)N3)NC(=O)[C@H](CCCNC(=N)N)NC(=O)[C@H](CC(C)C)NC(=O)CNC(=O)[C@H](CCC(=O)O)NC2=O | 23 nM | 0.3 nM
C#CC[C@H](NC(=O)[C@@H](N)CCC(=O)O)C(=O)N[C@H]1CSSC[C@@H]2NC(=O)[C@@H]3CSSC[C@@H](C(=O)N[C@@H](CCCNC(=N)N)C(=O)N[C@@H](CCCCN)C(=O)N[C@@H](CCC(=O)O)C(=O)N[C@H](C(N)=O)[C@@H](C)CC)NC(=O)[C@H](Cc4c[nH]c5ccc(Br)cc45)NC(=O)[C@H](CC(C)C)NC(=O)[C@H](CCCCN)NC(=O)[C@H](CSSC[C@H](NC(=O)[C@H]([C@@H](C)O)NC(=O)[C@H](Cc4c[nH]c5ccccc45)NC(=O)[C@H](CCCC)NC(=O)[C@H](Cc4c[nH]c5ccccc45)NC(=O)[C@H](CCCCN)NC(=O)[C@H](CCC(N)=O)NC1=O)C(=O)N[C@@H](CC(=O)O)C(=O)N[C@@H](CO)C(=O)N[C@@H](CCC(=O)O)C(=O)N[C@@H](CCCNC(=N)N)C(=O)N[C@@H](C)C(=O)N3)NC(=O)[C@H](CCCNC(=N)N)NC(=O)[C@H](CC(C)C)NC(=O)CNC(=O)[C@H](CCC(=O)O)NC2=O | 72 nM | 0.5 nM
C#CC[C@H](NC(=O)[C@@H](N)CCC(=O)O)C(=O)N[C@H]1CSSC[C@@H]2NC(=O)[C@@H]3CSSC[C@@H](C(=O)N[C@@H](CCCNC(=N)N)C(=O)N[C@@H](CCCCN)C(=O)N[C@@H](CCC(=O)O)C(=O)N[C@H](C(N)=O)[C@@H](C)CC)NC(=O)[C@H](Cc4c[nH]c5ccc(Br)cc45)NC(=O)[C@H](CC(C)C)NC(=O)[C@H](CCCCN)NC(=O)[C@H](CSSC[C@H](NC(=O)[C@H]([C@@H](C)O)NC(=O)[C@H](Cc4c[nH]c5ccccc45)NC(=O)[C@H](CCCC)NC(=O)[C@H](Cc4c[nH]c5ccccc45)NC(=O)[C@H](CCCCN)NC(=O)[C@H](CCC(N)=O)NC1=O)C(=O)N[C@@H](CC(=O)O)C(=O)N[C@@H](CO)C(=O)N[C@@H](CCCCN)C(=O)N[C@@H](CCCNC(=N)N)C(=O)N[C@@H](CCC(=O)O)C(=O)N3)NC(=O)[C@H](CCCNC(=N)N)NC(=O)[C@H](CC(C)C)NC(=O)CNC(=O)[C@H](CCC(=O)O)NC2=O | 182 nM | 1.3 nM
C#CC[C@H](N)C(=O)N[C@@H](Cc1ccc(O)cc1)C(=O)N[C@H]1CSSC[C@@H]2NC(=O)[C@@H]3CSSC[C@@H](C(=O)N[C@@H](CCCNC(=N)N)C(=O)N[C@@H](CCCCN)C(=O)N[C@@H](CCC(=O)O)C(=O)N[C@@H](Cc4c[nH]c5ccccc45)C(N)=O)NC(=O)[C@H](Cc4c[nH]c5ccccc45)NC(=O)[C@H](CC(C)C)NC(=O)[C@H](CCCCN)NC(=O)[C@H](CSSC[C@H](NC(=O)[C@H]([C@@H](C)O)NC(=O)[C@H](Cc4c[nH]c5ccccc45)NC(=O)[C@H](CCCC)NC(=O)[C@H](Cc4c[nH]c5ccccc45)NC(=O)[C@H](CCCCN)NC(=O)[C@H](CCC(N)=O)NC1=O)C(=O)N[C@@H](CC(=O)O)C(=O)N[C@@H](CO)C(=O)N[C@@H](CCCCN)C(=O)N[C@@H](CCCNC(=N)N)C(=O)N[C@@H](C)C(=O)N3)NC(=O)[C@H](CCCNC(=N)N)NC(=O)[C@H](CC(C)C)NC(=O)CNC(=O)[C@H](CCC(=O)O)NC2=O | 92 nM | 0.2 nM
C#CC[C@H](N)C(=O)N[C@@H](Cc1ccc(O)cc1)C(=O)N[C@H]1CSSC[C@@H]2NC(=O)[C@@H]3CSSC[C@@H](C(=O)N[C@@H](CCCNC(=N)N)C(=O)N[C@@H](CCCCN)C(=O)N[C@@H](CCC(=O)O)C(=O)N[C@H](C(N)=O)[C@@H](C)CC)NC(=O)[C@H](Cc4c[nH]c5cc(Br)ccc45)NC(=O)[C@H](CC(C)C)NC(=O)[C@H](CCCCN)NC(=O)[C@H](CSSC[C@H](NC(=O)[C@H]([C@@H](C)O)NC(=O)[C@H](Cc4c[nH]c5ccccc45)NC(=O)[C@H](CCCC)NC(=O)[C@H](Cc4c[nH]c5ccccc45)NC(=O)[C@H](CCCCN)NC(=O)[C@H](CCC(N)=O)NC1=O)C(=O)N[C@@H](CC(=O)O)C(=O)N[C@@H](CO)C(=O)N[C@@H](CCCCN)C(=O)N[C@@H](CCCNC(=N)N)C(=O)N[C@@H](C)C(=O)N3)NC(=O)[C@H](CCCNC(=N)N)NC(=O)[C@H](CC(C)C)NC(=O)CNC(=O)[C@H](CCC(=O)O)NC2=O | 39 nM | 8.9 nM

Source: ChEMBL document CHEMBL4152382, “Discovery of Tarantula Venom-Derived NaV1.7-Inhibitory JzTx-V Peptide 5-Br-Trp24 Analogue AM-6120 with Systemic Block of Histamine-Induced Pruritis” (J Med Chem, 2018)
